Measured values from publication PMC2810717 (Biochemistry, 2010).

Key:
spermine oxidase (SMO) [1] = target: T1, spermine oxidase (SMO) (Homo sapiens, UniProt Q9NWM0); assay type: biochemical
spermine oxidase (SMO) [2] = target: T1, spermine oxidase (SMO); experiment: biochemical

T1 sequence (Q9NWM0 whole entry): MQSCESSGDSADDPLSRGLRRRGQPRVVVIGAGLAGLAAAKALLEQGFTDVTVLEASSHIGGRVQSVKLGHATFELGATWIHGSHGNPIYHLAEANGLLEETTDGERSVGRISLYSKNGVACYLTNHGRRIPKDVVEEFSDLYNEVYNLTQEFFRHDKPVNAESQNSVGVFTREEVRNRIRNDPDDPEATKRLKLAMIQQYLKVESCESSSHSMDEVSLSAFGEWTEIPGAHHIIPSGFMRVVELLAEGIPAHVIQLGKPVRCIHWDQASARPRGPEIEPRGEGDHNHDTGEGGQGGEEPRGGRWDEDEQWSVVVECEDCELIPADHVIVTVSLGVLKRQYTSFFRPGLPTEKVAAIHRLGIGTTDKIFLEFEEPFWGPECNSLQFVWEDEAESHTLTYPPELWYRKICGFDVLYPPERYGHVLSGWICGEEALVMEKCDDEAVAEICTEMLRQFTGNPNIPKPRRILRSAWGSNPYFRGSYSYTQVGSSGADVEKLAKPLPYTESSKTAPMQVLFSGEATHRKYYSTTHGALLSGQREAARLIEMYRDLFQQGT

Row | Kd (spermine oxidase (SMO) [2]) [µM] | Compound | Ki (spermine oxidase (SMO) [1]) [µM]
1 | – | c1ccc(CNCCCCNCc2ccccc2)cc1 [DBDB, N,N’-dibenzylbutane-1,4-diamine] | 320 ± 80
2 | – | NCCCCNCCCN [spermidine] | 550 ± 20
3 | 48 ± 8.2 | NCCCNCCCCNCCCN [spermine] | –
